Data set [1] is described as follows: Fourteen day study of repetitive dosing of theacrine and caffeine: psychometric indices. Type of data set: in vivo, human.
A short description of data set [2]: Theacrine-caffeine interaction study: single oral dose plasma pharmacokinetics (LC-MS/MS, noncompartmental). Type of data set: in vivo, human. The text has this: Theacrine pharmacokinetics in humans has not been systematically characterized. Therefore, one purpose of this study, among others, was to determine theacrine pharmacokinetics and dose-linearity following oral administration in humans.
Eight healthy nonsmokers, including 4 men and 4 women, were recruited for the experiment.
(§1) Study Design and Procedures. […] Theacrine, administered as iTeaCrine.®, was provided by Compound Solutions (Carlsbad, Calif). […] Treatment sequence was randomized using a 4×4 Latin square. There was an approximate 1-week washout period between treatments for all subjects.
(§2) Test Visit Procedures. […] A catheter was inserted into the forearm vein for blood sampling. Duplicate measurements of resting heart rate and blood pressure were taken pre-dose and prior to each timed blood sample. In addition, respiratory rate was counted in one minute and body temperature was measured using an ear scanning thermometer (dual readings taken at each time).
All subjects were instructed to consume their usual diet throughout the study period, with the exception of the actual days of testing. During the two days prior to each test day, subjects recorded all food and drink consumed and attempted to mimic this intake for the two-day period prior to subsequent visits. Diet records were analyzed using nutrient analysis software (Food Processor SQL, version 9.9; ESHA Research, Salem, Oreg.). For the actual test days, standardized meals (meal replacement food bars [Clif “Builder's 20 g Protein Bar”] and ready-to-drink shakes [Orgain Organic Nutrition™]) were provided to the subjects after sample collection at hour 2 and hour 6 (one shake and one-half bar at each time). Subjects were also provided with adequate meal replacement bars and shakes to consume following the 8 hour sample collection. (during their time outside the lab). Each bar contained 280 calories, 10 grams of fat, 29 grams of carbohydrate, and 20 grams of protein. Each shake contained 250 calories, 7 grams of fat, 32 grams of carbohydrate, and 16 grams of protein. No food other than what was provided to the subjects was allowed during each study day, including both time spent in the lab and outside the lab. […] The subjects returned the following morning for the 24 hour blood collection, again in a 10 hour fasted state. The same volume of meal replacement bars or shakes was consumed by each subject during each visit (both in lab and outside lab).
Pharmacokinetic Study. Plasma concentration-time data were evaluated using noncompartmental methods in Phoenix WinNonlin (version 7.0; Pharsight Corporation, Mountain View, Calif) with adjustment for lag time after oral administration. The maximum concentration (Cmax), lag time (talag), and time of maximum concentration (tmax) were determined from the plasma concentration versus time data. The area under the plasma concentration-time curve from time 0 to infinity (was calculated using the trapezoidal rule extrapolated to time infinity). […] The oral clearance (CL/F) was calculated by dividing the oral dose by AUC0-∞. The apparent volume of distribution during the terminal elimination phase (Vz/F) was calculated by dividing CL/F by k. […]

The nature of data set [3]: Theacrine-caffeine interaction study: heart rate, blood pressure, rate pressure product, tolerability. The conditions noted are these: at the doses tested, administered alone or in combination.
Excerpt: as §1, §2
Differences between treatment group values were determined for systolic blood pressure (SBP), diastolic blood pressure (DBP), rate pressure product, and heart rate. Parametric data were analyzed by paired Student's t tests of mean differences in values between treatment groups. Statistical significance was defined a priori as a 2-sided or <0.05.

Data set [4] in a line: Single dose theacrine, caffeine or combination: subjective feelings on 10 cm visual analog scale. It counts as in vivo, human. Here is the method:
Subjects rated their subjective feelings using a 10 cm visual analog scale at 30 minutes, 1, 2, 3, 4, and 5 hours post ingestion and performed the trail making test (TMT) of cognitive performance at baseline and at hours 2 and 4 post ingestion.

[5] abbreviates: both sexes, human, in vivo, 150 mg.
Where [6] appears, read: from baseline to 2 hours post-ingestion.

Each structure is given as a SMILES string. Like-named read-outs stand apart in the source and are kept apart here.

Turning to `Cn1c(=O)c2c(ncn2C)n(C)c1=O` [Caffeine, caffeine, reference compound], in data set [1], the anxiety result is “increased anxiety scores”; the “psychometric indices of energy, focus, concentration, motivation and mood” value is “decreasing levels of energy, focus and concentration by Day 5”. Also, in data set [2] (setting [5]), the mean residence time (MRT) (as a rule, a mean duration of stay, worked out from the concentration-time curve) is 8.4 ± 4.3 h and the half-life was 6.2 ± 3.8 h. The Vd/F (commonly the volume of distribution divided by bioavailability) in data set [2] (both sexes, human, in vivo, 150 mg, Vd/F) came out at 33.5 ± 13.7 L. This molecule yielded a dose-adjusted Cmax in data set [2] (both sexes, human, in vivo, po, 150 mg) of 33.4 ± 9.5 ng/mL/mg. The “caffeine pharmacokinetics following caffeine alone or caffeine plus theacrine co-ingestion” value in data set [2] (caffeine 150 mg vs theacrine 125 mg + caffeine 150 mg) is “similar”. Also, in data set [2] (human, in vivo, 150 mg), the AUC was determined as 262.0 ± 74.1 ng·h/mL/mg and the apparent clearance CL/F (in general, clearance divided by bioavailability, as obtained after extravascular dosing) came to 4.1 ± 1.1 L/h. The “effect on baseline hemodynamic parameters, e.g. heart rate and blood pressure” value in data set [3] was “no effect”. Also, in data set [4] (caffeine 150 mg, 125 mg theacrine and 150 mg caffeine), the “self-reported motivation to exercise” value is “significantly increased”. Further, in data set [4] (setting [6]), the motivation to exercise entry is given as “significantly increased”, the sense of energy result is recorded as “significantly increased” and the subjective focus entry was “significant increase”.
For `Cn1c(=O)[nH]c2ncn(C)c2c1=O` [Paraxanthine, paraxanthine], the Tmax (in general, the time from dosing to the highest level) in data set [2] (both sexes, human, plasma, oral, 150 mg) worked out at 5 h. In addition, the dose-adjusted Cmax in data set [2] (both sexes, human, plasma, oral, 150 mg, paraxanthine in plasma, Condition 3: Caffeine 150 mg, dose-adjusted, mean ± SD) stood at 7.3 ± 1.5 ng/mL/mg; in data set [2] (both sexes, human, plasma, oral, paraxanthine in plasma, Condition 4: Theacrine 125 mg + Caffeine 150 mg, dose-adjusted, mean ± SD), 8.4 ± 3.5 ng/mL/mg. Moreover, the MRT in data set [2] (both sexes, human, plasma, oral, 150 mg, read-out: MRT) came out at 19.1 ± 18.6 h. For the same molecule, the half-life in data set [2] (both sexes, human, plasma, oral, 150 mg, read-out: t1/2 (converted)) is 12.5 ± 12.7 h. For the same molecule, the AUC in data set [2] (paraxanthine in plasma, Condition 3: Caffeine 150 mg, dose-adjusted, mean ± SD) amounted to 174 ± 152 ng·h/mL/mg; in data set [2] (paraxanthine in plasma, Condition 4: Theacrine 125 mg + Caffeine 150 mg, dose-adjusted, mean ± SD), 209 ± 202 ng·h/mL/mg.

Source of the values: US11925645B2, “Enhanced caffeinated beverage composition” (Ortho-Nutra, LLC, priority 2013, dated 2024).
